In experiment [1] the test system is U-87 MG. In words: Inhibition of human U87MG cells after 48 hrs. It counts as functional, cell-based, U-87MG ATCC.
Experiment [2] deals with SW480. The experiment in a line: Inhibition of human SW480 cells after 48 hrs. It counts as functional, cell-based. The following applies: SW480, 48 h.
Experiment [3] deals with SW480. The experiment in a line: Inhibition of human SW480 cells at >= IC50 after 48 hrs. The experiment is classed as functional.
Experiment [4] relates to U-87 MG. The experiment in a line: Inhibition of human U87MG cells at >= IC50 after 48 hrs. It counts as functional, U-87MG ATCC.

Structures are written as SMILES.

For orientation: IC50 means the concentration that inhibits the measured activity by half. Read a high IC50 as weaker potency. As to `COc1ccc(C(=O)Nc2nonc2NC(=O)c2ccc(OC)cc2)cc1`, the IC50 with U-87 MG [1] and in the experiment with SW480 [2] was above 40 µM each time.
For the compound `O=C(CN1CCOCC1)Nc1nonc1NC(=O)CN1CCOCC1`, the 50% inhibitory concentration (IC50) with U-87 MG [1] and in the experiment with SW480 [2] was above 200 µM each time.
On to `O=C(Nc1nonc1NC(=O)C1CCCCC1)C1CCCCC1`, for which the IC50 in the experiment on U-87 MG [1] and with SW480 [2] was above 20 µM throughout.
Turning to `O=C(Nc1nonc1NC(=O)c1ccc(Cl)c(Cl)c1)c1ccc(Cl)c(Cl)c1`, the IC50 in the experiment with U-87 MG [1] was 24 µM; with SW480 [2], 39.7 µM.
As for `O=C(Nc1nonc1NC(=O)c1ccco1)c1ccco1`, the IC50 in the experiment on U-87 MG [1] and with SW480 [2] was above 200 µM each time.
With `O=C(Nc1nonc1NC(=O)c1ccc(F)cc1)c1ccc(F)cc1`, the IC50 in the experiment with U-87 MG [1] was found to be 6 µM; in the experiment with SW480 [2], 10 µM. In addition, the “inhibition (INH)” value in the experiment with SW480 [3] worked out at 50%.
Consider `O=C(Nc1nonc1NC(=O)c1ccc(Cl)cc1)c1ccc(Cl)cc1`, for which the IC50 in the experiment on U-87 MG [1] was determined as 14 µM; in the experiment with SW480 [2] it was 8 µM. The “inhibition (INH)” value is listed as 70% with U-87 MG [4] and 50% with SW480 [3].
As to `O=C(Nc1nonc1NCc1ccc(C(F)(F)F)cc1)c1ccc(C(F)(F)F)cc1`, the IC50 in the experiment on U-87 MG [1] was determined as 18.2 µM; in the experiment with SW480 [2], 18.5 µM.
Turning to `FC(F)(F)c1ccc(CNc2nonc2NCc2ccc(C(F)(F)F)cc2)cc1`, the IC50 in the experiment on U-87 MG [1] stood at 20.6 µM; in the experiment with SW480 [2], 22.9 µM.
The corresponding values for `O=C(Nc1nonc1NC(=O)C1CCCC1)C1CCCC1` are above 200 µM and above 200 µM.
The matching figures for `CC(C)=CC(=O)Nc1nonc1NC(=O)C=C(C)C`: above 200 µM and above 200 µM.
As for `O=C(Nc1nonc1NC(=O)c1ccccc1)c1ccccc1`, the IC50 in the experiment with U-87 MG [1] worked out at 122 µM; in the experiment on SW480 [2] it was 137 µM.
As to `O=C(Nc1ccccc1NC(=O)c1ccc(C(F)(F)F)cc1)c1ccc(C(F)(F)F)cc1`, the IC50 with U-87 MG [1] and with SW480 [2] was above 8 µM in each case.
Regarding `O=C(Nc1nonc1NC(=O)c1ccc(Br)cc1)c1ccc(Br)cc1`, the IC50 is 14 µM in the experiment on U-87 MG [1] and 4 µM in the experiment on SW480 [2]. The “inhibition (INH)” value in the experiment on U-87 MG [4] amounted to 77%; in the experiment with SW480 [3], 50%.
For `O=C(Nc1n[nH]c(O)c1NC(=O)c1ccc(C(F)(F)F)cc1)c1ccc(C(F)(F)F)cc1`, the IC50 with U-87 MG [1] and in the experiment on SW480 [2] was above 200 µM in each case.
For `O=C(Nc1nonc1NC(=O)c1cc(C(F)(F)F)cc(C(F)(F)F)c1)c1cc(C(F)(F)F)cc(C(F)(F)F)c1`, the IC50 with U-87 MG [1] turned out to be 17.7 µM; in the experiment on SW480 [2], 10.8 µM.
Turning to `O=C(Nc1cscc1NC(=O)c1ccc(C(F)(F)F)cc1)c1ccc(C(F)(F)F)cc1`, the IC50 in the experiment on U-87 MG [1] and in the experiment on SW480 [2] was above 8 µM each time.
On to `O=C(Nc1nonc1NC(=O)c1c(F)c(F)c(F)c(F)c1F)c1c(F)c(F)c(F)c(F)c1F`, for which the IC50 was 25.5 µM in the experiment on U-87 MG [1] and 17.2 µM with SW480 [2].
The corresponding values for `O=C(Nc1nonc1NC(=O)c1ccccc1C(F)(F)F)c1ccccc1C(F)(F)F` are above 100 µM and 89.3 µM.
The matching figures for `O=C(Nc1nonc1NC(=O)c1cccc(C(F)(F)F)c1)c1cccc(C(F)(F)F)c1`: above 10 µM and above 10 µM.
The corresponding values for `Nc1nonc1NC(=O)c1ccc(C(F)(F)F)cc1` are above 200 µM and above 200 µM.
With `O=C(CCl)Nc1nonc1NC(=O)CCl`, the results for the IC50 in the experiment on U-87 MG [1] and in the experiment on SW480 [2] were 17.1 µM and 7.4 µM, respectively.
Take `O=C(Nc1nonc1NC(=O)C(Cl)(Cl)Cl)C(Cl)(Cl)Cl`: the IC50 with U-87 MG [1] and in the experiment with SW480 [2] was above 200 µM each time.
`O=C(Nc1nonc1NC(=O)c1ccc(C(F)(F)F)cc1)c1ccc(C(F)(F)F)cc1`: the IC50 came to 14.6 µM in the experiment on U-87 MG [1] and 11.2 µM with SW480 [2].
Consider `O=C(Nc1nonc1NC(=O)c1ccc(I)cc1)c1ccc(I)cc1`, for which the IC50 in the experiment on U-87 MG [1] turned out to be 1 µM; in the experiment on SW480 [2] it was 2 µM. Further, the “inhibition (INH)” value was 70% in the experiment on U-87 MG [4] and 50% in the experiment with SW480 [3].
Take `Cc1ccc(C(=O)Nc2nonc2NC(=O)c2ccc(C)cc2)cc1`: the IC50 in the experiment on U-87 MG [1] and with SW480 [2] was above 40 µM throughout.
Regarding `COc1cccc(C(=O)Nc2nonc2NC(=O)c2cccc(OC)c2)c1`, the results for the IC50 in the experiment with U-87 MG [1] and with SW480 [2] were 70.7 µM and 71 µM, respectively.

Values taken from ChEMBL document CHEMBL1158501, “Synthesis and structure-activity relationships of novel furazan-3,4-diamide analogs as potent anti-cancer agents” (Bioorg Med Chem Lett, 2010).
